Reference: patent publication US5420156A, “Pharmacologically active compound and use” (Burroughs Wellcome Co., priority 1989, dated 1995)

Columns and labels:
[1] = system: MAO-A (brain); test: In vivo inhibition of brain MAO-A (ex vivo assay after oral dosing); parameters: species or system male Sprague-Dawley rats; conditions: for inhibition of brain MAO-A by the time of tyramine administration: single oral dose, 3 hours later (tyramine pressor study); for Percentage inhibition of MAO-A, Brain: 3 hours after dosing
Experimental: To determine MAO inhibition in brains and livers of rats pretreated with a reversible inhibitor, it was necessary to use an assay procedure that minimized dilution of the compound. Thus, high concentrations of tissue homogenates were incubated for very short periods of time. For brain assays, initial tissue was 3-fold diluted into each assay. […] Further dilution of liver homogenates was necessary in order to obtain reliable data. Substrate concentrations were not saturating, but were chosen relative to Km values for serotonin and β-phenethylamine in order to give an estimate of MAO-A and MAO-B, respectively. Brains from pretreated male Sprague-Dawley rats ([…]) were homogenized in a buffer consisting of 0.1 M potassium phosphate and 5% sucrose (pH 7.4) at a 1:1 tissue weight/buffer volume ratio, using a motorized Teflon/glass homogenizer. MAO-A and MAO-B were determined by incubating 100 μL of tissue homogenate with 50 μL of a double-label substrate mixture to give final concentrations of [^3 H]serotonin, 0.4 mM (5C/mole) and [^14 C]β-phenethylamine, 20 μM (3C/mole). For blank assays, 100 μL portions of homogeneous were pre-incubated for 15 min. at 37° C. with pargyline (4 mM) before substrate addition. Incubations with substrate present were at 37° C. for 30 sec. Assay mixtures were then acidified and products extracted as in the above in vitro method (White and Glassman, loc. cit.).

[2] = system: MAO-A (liver); test: In vivo inhibition of liver MAO-A (ex vivo assay after oral dosing); parameters: species or system rats
Experimental: To determine MAO inhibition in brains and livers of rats pretreated with a reversible inhibitor, it was necessary to use an assay procedure that minimized dilution of the compound. Thus, high concentrations of tissue homogenates were incubated for very short periods of time. For brain assays, initial tissue was 3-fold diluted into each assay. […] Further dilution of liver homogenates was necessary in order to obtain reliable data. Substrate concentrations were not saturating, but were chosen relative to Km values for serotonin and β-phenethylamine in order to give an estimate of MAO-A and MAO-B, respectively. Brains from pretreated male Sprague-Dawley rats (sacrificed 3 hours after oral dosing with the test compound) were homogenized in a buffer consisting of 0.1 M potassium phosphate and 5% sucrose (pH 7.4) at a 1:1 tissue weight/buffer volume ratio, using a motorized Teflon/glass homogenizer. MAO-A and MAO-B were determined by incubating 100 μL of tissue homogenate with 50 μL of a double-label substrate mixture to give final concentrations of [^3 H]serotonin, 0.4 mM (5C/mole) and [^14 C]β-phenethylamine, 20 μM (3C/mole). For blank assays, 100 μL portions of homogeneous were pre-incubated for 15 min. at 37° C. with pargyline (4 mM) before substrate addition. Incubations with substrate present were at 37° C. for 30 sec. Assay mixtures were then acidified and products extracted as in the above in vitro method (White and Glassman, loc. cit.).
Liver tissue was homogenized in the above phosphate-sucrose buffer at a 1:5 tissue weight/buffer volume ratio. Portions (100 μL) of homogenate were incubated with 50 μL of the above double-label substrate mixture. Blank assays included the same volume of homogenate pre-incubated with 4 mM pargyline for 15 min. at 37° C. After addition of substrates, mixtures were incubated at 37° C. for 30 sec, acidified, and products extracted as above.

[3] = system: monoamine oxidase (MAO); conditions: background; cited from earlier work
[4] = system: MAO-A; test: In vitro inhibition of MAO-A in mitochondrial extracts of rat or human brain (double-label assay); assay type: biochemical
Experimental: (§1) MAO was assayed with [^3 H]serotonin (0.2 mM, 5G/mole) and [^14 C]β-phenethylamine (10 μM, 3 G/mole) as substrate in a double-label assay (White and Glassman, J. Neurochem, 29:987-97 (1977)). Under these conditions, serotonin is selectively metabolised by MAO-A and β-phenethylamine by MAO-B.

[5] = system: MAO-A; test: Kinetic mechanism of MAO-A inhibition in vitro (substrate serotonin or tyramine varied); assay type: biochemical, rat or human
Experimental: as §1
For studies of the kinetic mechanism of inhibition, the above method was used except that a single substrate, serotonin or tyramine, was varied over a 10-fold concentration range that included the Km concentration. When tyramine was used as substrate, the extract was pretreated with deprenyl (1 μM) to inhibit all MAO-B activity. MAO-A activity was determined in the absence and presence of the compound under test at each substrate concentration in duplicate or triplicate assays.

[6] = system: MAO-B (brain); test: In vivo inhibition of brain MAO-B (ex vivo assay after oral dosing); parameters: species or system male Sprague-Dawley rats; conditions: 5, 10, 20 mg/kg p.o.
Experimental: (§2) To determine MAO inhibition in brains and livers of rats pretreated with a reversible inhibitor, it was necessary to use an assay procedure that minimized dilution of the compound. Thus, high concentrations of tissue homogenates were incubated for very short periods of time. For brain assays, initial tissue was 3-fold diluted into each assay. Because of the very high MAO activity. Further dilution of liver homogenates was necessary in order to obtain reliable data. Substrate concentrations were not saturating, but were chosen relative to Km values for serotonin and β-phenethylamine in order to give an estimate of MAO-A and MAO-B, respectively. Brains from pretreated male Sprague-Dawley rats (sacrificed 3 hours after oral dosing with the test compound) were homogenized in a buffer consisting of 0.1 M potassium phosphate and 5% sucrose (pH 7.4) at a 1:1 tissue weight/buffer volume ratio, using a motorized Teflon/glass homogenizer. MAO-A and MAO-B were determined by incubating 100 μL of tissue homogenate with 50 μL of a double-label substrate mixture to give final concentrations of [^3 H]serotonin, 0.4 mM (5C/mole) and [^14 C]β-phenethylamine, 20 μM (3C/mole). For blank assays, 100 μL portions of homogeneous were pre-incubated for 15 min. at 37° C. with pargyline (4 mM) before substrate addition. Incubations with substrate present were at 37° C. for 30 sec. […]

[7] = system: MAO-B (liver); test: In vivo inhibition of liver MAO-B (ex vivo assay after oral dosing); parameters: species or system rats; conditions: 5, 10, 20 mg/kg p.o.
Experimental: as §2

[8] = Acute oral toxicity, mice; assay type: in vivo; conditions: up to 1000 mg/kg., p.o.
[9] = Acute oral toxicity, rats; assay type: in vivo; conditions: up to 1000 mg/kg., p.o.
[10] = system: MAO-A; test: Reversibility of binding to MAO-A by dialysis
[11] = system: elevation of blood pressure by orally ingested tyramine; test: Response to orally ingested tyramine (elevation of blood pressure) in test mammals; assay type: in vivo; conditions: oral antidepressant doses prior to orally ingested tyramine

**Q.** With `NNCCc1ccccc1` [pheneizine, reference compound] as the compound, how does the “inhibition of brain MAO-A by the time of tyramine administration” value [1] read?
**A.** approximately 80%

**Q.** And the “inhibition of liver MAO-A in tyramine pressor study” value ([2]; single oral dose producing approximately 80% inhibition of brain MAO-A)?
**A.** ≥ 90%

**Q.** What about the “type of MAO inhibition” value [3] of the same compound?
**A.** non-selective, irreversible inhibitors

**Q.** For `Cc1cc(C(=O)NNCc2ccccc2)no1` [isocarboxazid], which “type of MAO inhibition” value [3] is on record?
**A.** non-selective, irreversible inhibitors

**Q.** With `N[C@@H]1C[C@H]1c1ccccc1` (relative stereo) [tranylcypromine] as the compound, how does the “type of MAO inhibition” value [3] read?
**A.** non-selective, irreversible inhibitors

**Q.** With `CCc1cccc2c1S(=O)(=O)c1ccccc1O2` [Compound I, 1-Ethylphenoxathiin 10,10-dioxide] as the compound, how does the “inhibition of MAO-A (in words)” value [4] read?
**A.** potent selective inhibition of MAO-A

**Q.** What about the IC50 ([4]; read-out: I50 (concentration producing 50% inhibition)) of the same compound?
**A.** 35 nM

**Q.** What about the “type of inhibition vs. the substrate serotonin or tyramine” value ([5]; substrate serotonin or tyramine) of the same compound?
**A.** competitive

**Q.** What about the Ki ([5]; vs. substrate serotonin) of the same compound?
**A.** 10 nM

**Q.** What about the Ki ([5]; vs. substrate tyramine, extract pretreated with deprenyl (1 μM)) of the same compound?
**A.** 10 nM

**Q.** And the “Percentage inhibition of MAO-A, Brain” value ([1]; 5 mg/kg p.o.)?
**A.** 18.5 ± 8.1%

**Q.** What about the “Percentage inhibition of MAO-A, Brain” value ([1]; 10 mg/kg p.o.) of the same compound?
**A.** 65.2 ± 6.6%

**Q.** And the “Percentage inhibition of MAO-A, Brain” value ([1]; 20 mg/kg p.o.)?
**A.** 82.4 ± 2.6%

**Q.** And the “time of peak inhibition of brain MAO-A” value ([1]; oral dose of 20 mg/kg)?
**A.** 1 to 6 h

**Q.** And the “inhibition of brain MAO-A at 24 hours after dosing” value ([1]; oral dose of 20 mg/kg, 24 hours)?
**A.** negligible

**Q.** What about the “inhibition of brain MAO-A by the time of tyramine administration” value [1] of the same compound?
**A.** approximately 80%

**Q.** What about the “Percentage inhibition of MAO-A, Liver” value ([2]; 5 mg/kg p.o.) of the same compound?
**A.** 32.8 ± 6.4%

**Q.** And the “Percentage inhibition of MAO-A, Liver” value ([2]; 10 mg/kg p.o.)?
**A.** 61.8 ± 4.4%

**Q.** And the “Percentage inhibition of MAO-A, Liver” value ([2]; 20 mg/kg p.o.)?
**A.** 78.9 ± 1.6%

**Q.** And the “inhibition of MAO-B, brain” value [6]?
**A.** no significant inhibition

**Q.** What about the “inhibition of MAO-B, liver” value [7] of the same compound?
**A.** no significant inhibition

**Q.** What about the “visible effects after acute doses” value [8] of the same compound?
**A.** No visible effects

**Q.** And the “visible effects after acute doses” value [9]?
**A.** No visible effects

**Q.** What about the “binding to MAO-A, removal from its complex by dialysis” value [10] of the same compound?
**A.** reversibly bound to MAO-A

**Q.** And the “increase in response (elevation of blood pressure) to orally ingested tyramine” value [11]?
**A.** No pharmacologically significant increase in response
